Assays:
[1] = tested on: LOLRI; test: A. Herbicidal pre-emergence action on harmful plants (Tables A); assay type: in vivo, Lolium rigidum; conditions: visual grading after ca. 3 weeks vs untreated controls, 100% = plants have died off, 0% = as control plants
Source text: (§1) Seeds of mono- and dicotyledonous weed plants were sown in plastic pots (double sowings with one species of mono- and one species of dicotyledonous weed plants per pot), in sandy loam, and covered with soil. The compounds according to the invention, formulated in the form of wettable powders (WP) or as emulsifiable concentrates (EC), were applied to the surface of the covering soil as aqueous suspension or emulsion, with the addition of 0.5% of an additive, at an application rate of 6001 of water per hectare (converted). Following treatment, the pots were placed in a greenhouse and kept under optimum growth conditions for the test plants. The visual grading of the damage to the test plants was carried out after ca. 3 weeks in comparison to untreated controls (herbicidal effect in percent (%): 100% effect = plants have died off, 0% effect = as control plants). Tables A1 to A12, below, show the effects of selected compounds of the general formula (I) according to table 1 on various harmful plants and an application rate corresponding to 1280 g/ha or below obtained by the experimental procedure mentioned above. Table A1: pre-emergence activity at 1280g/ha against ABUTH in %

[2] = tested on: POAAN; test: B. Herbicidal post-emergence action on harmful plants (Tables B); assay type: in vivo, Poa annua
Description: (§2) Seeds of mono- and dicotyledonous weed plants were placed in plastic pots in sandy loam soil (doubly sown with in each case one species of mono- or dicotyledonous weed plants per pot), covered with soil and cultivated in a greenhouse under controlled growth conditions. 2 to 3 weeks after sowing, the test plants were treated at the one-leaf stage. The compounds of the invention, formulated in the form of wettable powders (WP) or as emulsion concentrates (EC), were applied onto the green parts of the plants as aqueous suspension or emulsion with addition of 0.5% additive at a water application rate of 600 liters per hectare (converted). After the test plants had been kept in the greenhouse under optimum growth conditions for about 3 weeks, the activity of the preparations was rated visually in comparison to untreated controls. For example, 100% activity = the plants have died, 0% activity = like control plants. Tables B1 to B12, below, show the effects of selected compounds of the general formula (I) according to table 1 on various harmful plants and an application rate corresponding to 1280 g/ha or below obtained by the experimental procedure mentioned above. Table B1a: post-emergence activity at 1280g/ha against ABUTH in %

[3] = tested on: MATIN; test: A. Herbicidal pre-emergence action on harmful plants (Tables A); assay type: in vivo, Matricaria inodora
Source text: as §1

[4] = tested on: ECHCG; test: B. Herbicidal post-emergence action on harmful plants (Tables B); assay type: in vivo, Echinochloa crus-galli; conditions: application rate 1280 g/ha; Table B2a
Description: as §2

[5] = tested on: DIGSA; test: A. Herbicidal pre-emergence action on harmful plants (Tables A); assay type: in vivo, Digitaria sanguinalis
Source text: as §1

[6] = tested on: SETVI; test: as above; assay type: in vivo, Setaria viridis; conditions: visual grading after ca. 3 weeks vs untreated controls, 100% = plants have died off, 0% = as control plants
Source text: as §1

[7] = tested on: ALOMY; test: as above; assay type: in vivo, Alopecurus myosuroides
Source text: as §1

[8] = tested on: STEME; test: as above; assay type: in vivo, Stellaria media; conditions: visual grading after ca. 3 weeks vs untreated controls, 100% = plants have died off, 0% = as control plants
Source text: as §1

[9] = tested on: ECHCG; test: as above; assay type: in vivo, Echinochloa crus-galli; conditions: visual grading after ca. 3 weeks vs untreated controls, 100% = plants have died off, 0% = as control plants
Source text: as §1

[10] = tested on: POAAN; test: as above; assay type: in vivo, Poa annua
Source text: as §1

[11] = tested on: AMARE; test: as above; assay type: in vivo, Amaranthus retroflexus; conditions: application rate 1280 g/ha; visual grading after ca. 3 weeks vs untreated controls; 100% = plants have died off, 0% = as control plants
Source text: as §1

[12] = tested on: VERPE; test: B. Herbicidal post-emergence action on harmful plants (Tables B); assay type: in vivo, Veronica persica; conditions: application rate 1280 g/ha; Table B11a
Description: as §2

[13] = application rate 1280 g/ha, Table B7a
[14] = application rate 1280 g/ha, visual grading after ca. 3 weeks vs untreated controls, 100% = plants have died off, 0% = as control plants
[15] = application rate 1280 g/ha, Table A12a
[16] = application rate 320 g/ha, Table A9b
[17] = application rate 1280 g/ha, Table A9a
[18] = application rate 320 g/ha, Table A7b
[19] = application rate 320 g/ha, Table A12b
[20] = application rate 80 g/ha, Table A7c

Row | Structure (SMILES) | pre-emergence activity against LOLRI ([1]; application rate 1280 g/ha) [%] | post-emergence activity against POAAN [2, 13] [%] | pre-emergence activity against MATIN [3, 14] [%] | pre-emergence activity against DIGSA [5, 15] [%] | pre-emergence activity against SETVI ([6]; application rate 1280 g/ha) [%] | pre-emergence activity against ALOMY [7, 17] [%] | pre-emergence activity against STEME ([8]; application rate 1280 g/ha) [%] | pre-emergence activity against ECHCG ([9]; application rate 1280 g/ha) [%] | pre-emergence activity against POAAN [10, 18] [%] | pre-emergence activity against POAAN [10, 14] [%] | pre-emergence activity against LOLRI ([1]; application rate 320 g/ha) [%] | pre-emergence activity against DIGSA [5, 19] [%] | pre-emergence activity against SETVI ([6]; application rate 320 g/ha) [%] | pre-emergence activity against ECHCG ([9]; application rate 320 g/ha) [%] | pre-emergence activity against POAAN [10, 20] [%] | pre-emergence activity against AMARE [11] [%] | other results
1 | COCc1c(C(=O)N2CCCC2Cc2ccc(F)cc2F)cnn1C (racemic) [Example I-158] | 90 | 100 | 90 | 100 | 90 | 100 | 90 | 100 | 100 | 100 | – | – | – | – | – | – | post-emergence activity against ECHCG [4]: 90%; pre-emergence activity against ALOMY [7, 16]: 100%
2 | COCc1c(C(=O)N2CCCC2Cc2c(F)cccc2F)cnn1C (single isomer, unassigned) [Example I-126] | 100 | 90 | 90 | 100 | 100 | 90 | 90 | 90 | 90 | 100 | 90 | 100 | 90 | 90 | 90 | – | post-emergence activity against POAAN ([2]; application rate 80 g/ha, Table B7c): 90%; post-emergence activity against POAAN ([2]; application rate 320 g/ha, Table B7b): 90%; pre-emergence activity against DIGSA ([5]; application rate 80 g/ha, Table A12c): 90%; pre-emergence activity against SETVI ([6]; application rate 80 g/ha): 90%; pre-emergence activity against ALOMY [7, 16]: 90%; pre-emergence activity against STEME ([8]; application rate 320 g/ha): 90%; pre-emergence activity against ECHCG ([9]; application rate 80 g/ha): 90%
3 | CCn1cc(C(=O)N2CCCC2Cc2ccccc2F)c(COC)n1 (racemic) [Example I-027] | 90 | – | – | 90 | 100 | 90 | 90 | 90 | – | – | – | 90 | 100 | 90 | – | – | –
4 | COCc1c(C(=O)N2CCCC2Cc2ccccc2C)cnn1C (single isomer, unassigned) [Example I-139] | 90 | – | – | 100 | 100 | – | – | 100 | 100 | 100 | – | 90 | – | – | 100 | 90 | –
5 | COCc1nn(C)cc1C(=O)N1CCCC1Cc1ccccc1OC (racemic) [Example I-014] | 100 | – | – | – | 90 | 90 | – | 100 | 100 | 100 | 90 | – | – | 90 | – | – | post-emergence activity against VERPE [12]: 90%
6 | CCOCc1c(C(=O)N2CCCC2Cc2ccccc2F)cnn1C (single isomer, unassigned) [Example I-142] | 100 | 90 | 90 | 100 | 100 | 90 | 90 | 100 | 100 | 100 | 90 | 90 | 90 | 90 | 90 | 90 | pre-emergence activity against STEME ([8]; application rate 320 g/ha): 90%; pre-emergence activity against ECHCG ([9]; application rate 80 g/ha): 90%
7 | COCc1nn(C)cc1C(=O)N1CCCC1Cc1ccc(Cl)cc1Cl (racemic) [Example I-016] | – | 90 | – | – | 90 | – | – | 100 | 100 | 100 | – | – | – | 90 | – | – | post-emergence activity against ECHCG [4]: 90%
8 | COCc1c(C(=O)N2CCCC2Cc2cc(F)ccc2F)cnn1C (single isomer, unassigned) [Example I-188] | 100 | 90 | 90 | 100 | 100 | 90 | 90 | 100 | 100 | 100 | – | 90 | 100 | 90 | 90 | – | pre-emergence activity against SETVI ([6]; application rate 80 g/ha): 90%
9 | COCc1nn(C)c(Cl)c1C(=O)N1CCCC1Cc1ccccc1F (single isomer, unassigned) [Example I-058] | 90 | 90 | – | 100 | 100 | – | 90 | 100 | – | 100 | – | 90 | 90 | 90 | – | 100 | pre-emergence activity against MATIN ([3]; pre-emergence, 1280 g/ha, 504 h): 90%
